# Tests used:
# [1] = tested on: term and late preterm subjects with hyperbilirubinemia; test: Phase 2b trial: vital signs, physical, neurological, audiology and ophthalmological examinations; type: in vivo, human
# From the text: (§1) Safety measurements included adverse events (AEs), hematology and chemistry laboratory tests, vital sign measurements, physical examinations, dermatological assessments, hearing assessments, ophthalmological assessments, neurological assessments, and quantitative electrocardiograms (ECGs).
# All other safety endpoints (vital sign measurements, hematology and chemistry laboratory tests, physical examination results, ECG results, etc.) were summarized by treatment group and visit. In addition, shift tables were generated for laboratory results comparing postbaseline results with baseline. Similar shift tables were generated for results of vital sign measurements.
# [2] = Phase 2b trial: pharmacokinetics of stannsoporfin in plasma after IM injection; type: in vivo, human
# From the text: Pharmacokinetic Assessments: Subjects were stratified into 2 groups having different sampling times to better characterize the PK curves.
# heme oxygenase = settings: cited from earlier work
# [3] = animal studies; doses approximately equivalent to the proposed human dose; cited from earlier work
# [4] = tested on: term and late preterm subjects with hyperbilirubinemia; test: Phase 2b trial: adverse events; type: in vivo, human
# From the text: as §1
# Safety population: Defined as all subjects who were enrolled in the clinical study and received IMP. Subjects were summarized according to the treatment received.
# Analysis of Safety Parameters: Descriptive statistical methods were used to summarize safety parameters based on the safety population. All treatment-emergent adverse events (TEAEs) were summarized. Tabular summaries were also presented for all TEAEs considered potentially related to the IMP, TEAEs by intensity, serious adverse events (SAEs), and AEs leading to discontinuation.
substance,measurement,setting,value
tin IV mesoporphyrin IX dichloride [Stannsoporfin],"effect on vital signs (blood pressure, pulse, respiratory rate, temperature)","[1]; 1.5 to 4.5 mg/kg IM, preliminary data",no effect
same,mean pulse,"[1]; 45 minutes after treatment, no longer observed at 1.5 hours",decrease in mean pulse
same,audiology examinations,"[1]; screening, 48 hours after treatment/hospital discharge, or early termination, all subjects",normal
same,T1/2,[2]; 1.5 mg/kg IM,5.46 h
same,Tmax,[2]; 1.5 mg/kg IM,1.87 h
same,T1/2,[2]; 3.0 mg/kg IM,10.7 h
same,Tmax,[2]; 3.0 mg/kg IM,1.52 h
same,T1/2,[2]; 4.5 mg/kg IM,9.86 h
same,Tmax,[2]; 4.5 mg/kg IM,2.3 h
same,"T1/2, Mean of the three doses","[2]; 1.5, 3.0 and 4.5 mg/kg IM",8.6 h
same,"Tmax, Mean of the three doses","[2]; 1.5, 3.0 and 4.5 mg/kg IM",1.89 h
same,increase in Cmax with dose,[2]; 1.5 to 4.5 mg/kg dose range,dose-proportional increase
same,elimination half-life,"[2]; IM injection, final data",approximately 10 hours
same,time of peak plasma concentrations post-treatment,"[2]; IM injection, final data",≤ 1 h
same,time plasma stannsoporfin concentrations measurable post treatment,[2]; all subjects at doses of 3 mg/kg and above,at least 48 hours
same,intersubject variability in Cmax and AUCs,"[2]; neonates, IM",≤ 30%
same,inhibition of heme oxygenase,heme oxygenase,potent competitive inhibitor
same,"effects on ECG, central nervous system, cardiovascular, pulmonary and renal functions",[3],no biologically significant effects
same,"# of subjects one AE, n (%)",[4]; 1.5 mg/kg IM,8 (47.1%)
same,"AE Anal Abscess: subjects, n (%)",[4]; 1.5 mg/kg IM,0
same,"AE Anemia: subjects, n (%)",[4]; 1.5 mg/kg IM,0
same,"AE Bradycardia: subjects, n (%)",[4]; 1.5 mg/kg IM,0
same,"AE CO2 decreased: subjects, n (%)",[4]; 1.5 mg/kg IM,0
same,"AE CRP increased: subjects, n (%)",[4]; 1.5 mg/kg IM,1 (5.9%)
same,"AE Contusion: subjects, n (%)",[4]; 1.5 mg/kg IM,1 (5.9%)
same,"AE Depressed level consciousness: subjects, n (%)",[4]; 1.5 mg/kg IM,0
same,"AE Diaper dermatitis: subjects, n (%)",[4]; 1.5 mg/kg IM,2 (11.8%)
same,"AE Erythema toxicum: subjects, n (%)",[4]; 1.5 mg/kg IM,0
same,"AE Erythema: subjects, n (%)",[4]; 1.5 mg/kg IM,0
same,"AE Flushing: subjects, n (%)",[4]; 1.5 mg/kg IM,0
same,"AE Hemangioma: subjects, n (%)",[4]; 1.5 mg/kg IM,1 (5.9%)
same,"AE Hemoglobin increased: subjects, n (%)",[4]; 1.5 mg/kg IM,0
same,"AE Hyperbilirubinemia: subjects, n (%)",[4]; 1.5 mg/kg IM,2 (11.8%)
same,"AE Jaundice: subjects, n (%)",[4]; 1.5 mg/kg IM,5 (29.4%)
same,"AE Leukocytosis: subjects, n (%)",[4]; 1.5 mg/kg IM,0
same,"AE Meningitis: subjects, n (%)",[4]; 1.5 mg/kg IM,0
same,"AE Oral Candidiasis: subjects, n (%)",[4]; 1.5 mg/kg IM,0
same,"AE Rash neonatal: subjects, n (%)",[4]; 1.5 mg/kg IM,0
same,"AE Rash papular: subjects, n (%)",[4]; 1.5 mg/kg IM,0
same,"AE Rash: subjects, n (%)",[4]; 1.5 mg/kg IM,1 (5.9%)
same,"AE Seborrhoeic dermatitis: subjects, n (%)",[4]; 1.5 mg/kg IM,0
same,"AE Serum Glucose decreased: subjects, n (%)",[4]; 1.5 mg/kg IM,0
same,"AE Serum sodium increased: subjects, n (%)",[4]; 1.5 mg/kg IM,0
same,"AE Skin exfoliation: subjects, n (%)",[4]; 1.5 mg/kg IM,1 (5.9%)
same,"AE Thrombocytopenia: subjects, n (%)",[4]; 1.5 mg/kg IM,0
same,"AE Umbilical Hernia: subjects, n (%)",[4]; 1.5 mg/kg IM,0
same,"AE Vomiting: subjects, n (%)",[4]; 1.5 mg/kg IM,0
same,Total AEs,"[4]; 1.5 mg/kg IM, N = 17",17
same,"# of subjects one AE, n (%)",[4]; 3.0 mg/kg IM,10 (55.6%)
same,"AE Anal Abscess: subjects, n (%)",[4]; 3.0 mg/kg IM,1 (5.6%)
same,"AE Anemia: subjects, n (%)",[4]; 3.0 mg/kg IM,1 (5.6%)
same,"AE Bradycardia: subjects, n (%)",[4]; 3.0 mg/kg IM,0
same,"AE CO2 decreased: subjects, n (%)",[4]; 3.0 mg/kg IM,1 (5.6%)
same,"AE CRP increased: subjects, n (%)",[4]; 3.0 mg/kg IM,0
same,"AE Contusion: subjects, n (%)",[4]; 3.0 mg/kg IM,0
same,"AE Depressed level consciousness: subjects, n (%)",[4]; 3.0 mg/kg IM,0
same,"AE Diaper dermatitis: subjects, n (%)",[4]; 3.0 mg/kg IM,1 (5.6%)
same,"AE Erythema toxicum: subjects, n (%)",[4]; 3.0 mg/kg IM,3 (16.7%)
same,"AE Erythema: subjects, n (%)",[4]; 3.0 mg/kg IM,1 (5.6%)
same,"AE Flushing: subjects, n (%)",[4]; 3.0 mg/kg IM,1 (5.6%)
same,"AE Hemangioma: subjects, n (%)",[4]; 3.0 mg/kg IM,0
same,"AE Hemoglobin increased: subjects, n (%)",[4]; 3.0 mg/kg IM,0
same,"AE Hyperbilirubinemia: subjects, n (%)",[4]; 3.0 mg/kg IM,1 (5.6%)
same,"AE Jaundice: subjects, n (%)",[4]; 3.0 mg/kg IM,0
same,"AE Leukocytosis: subjects, n (%)",[4]; 3.0 mg/kg IM,0
same,"AE Meningitis: subjects, n (%)",[4]; 3.0 mg/kg IM,0
same,"AE Oral Candidiasis: subjects, n (%)",[4]; 3.0 mg/kg IM,0
same,"AE Rash neonatal: subjects, n (%)",[4]; 3.0 mg/kg IM,1 (5.6%)
same,"AE Rash papular: subjects, n (%)",[4]; 3.0 mg/kg IM,0
same,"AE Rash: subjects, n (%)",[4]; 3.0 mg/kg IM,0
same,"AE Seborrhoeic dermatitis: subjects, n (%)",[4]; 3.0 mg/kg IM,1 (5.6%)
same,"AE Serum Glucose decreased: subjects, n (%)",[4]; 3.0 mg/kg IM,1 (5.6%)
same,"AE Serum sodium increased: subjects, n (%)",[4]; 3.0 mg/kg IM,1 (5.6%)
same,"AE Skin exfoliation: subjects, n (%)",[4]; 3.0 mg/kg IM,0
same,"AE Thrombocytopenia: subjects, n (%)",[4]; 3.0 mg/kg IM,0
same,"AE Umbilical Hernia: subjects, n (%)",[4]; 3.0 mg/kg IM,1 (5.6%)
same,"AE Vomiting: subjects, n (%)",[4]; 3.0 mg/kg IM,0
same,Total AEs,"[4]; 3.0 mg/kg IM, N = 18",16
same,serious adverse event Anemia: Outcome,"[4]; 3.0 mg/kg, Rh incompatibility, required transfusion",Resolved
same,"# of subjects one AE, n (%)",[4]; 4.5 mg/kg IM,3 (37.5%)
same,"AE Anal Abscess: subjects, n (%)",[4]; 4.5 mg/kg IM,0
same,"AE Anemia: subjects, n (%)",[4]; 4.5 mg/kg IM,1 (12.5%)
same,"AE Bradycardia: subjects, n (%)",[4]; 4.5 mg/kg IM,1 (12.5%)
same,"AE CO2 decreased: subjects, n (%)",[4]; 4.5 mg/kg IM,0
same,"AE CRP increased: subjects, n (%)",[4]; 4.5 mg/kg IM,0
same,"AE Contusion: subjects, n (%)",[4]; 4.5 mg/kg IM,0
same,"AE Depressed level consciousness: subjects, n (%)",[4]; 4.5 mg/kg IM,1 (12.5%)
same,"AE Diaper dermatitis: subjects, n (%)",[4]; 4.5 mg/kg IM,0
same,"AE Erythema toxicum: subjects, n (%)",[4]; 4.5 mg/kg IM,0
same,"AE Erythema: subjects, n (%)",[4]; 4.5 mg/kg IM,1 (12.5%)
same,"AE Flushing: subjects, n (%)",[4]; 4.5 mg/kg IM,0
same,"AE Hemangioma: subjects, n (%)",[4]; 4.5 mg/kg IM,0
same,"AE Hemoglobin increased: subjects, n (%)",[4]; 4.5 mg/kg IM,1 (12.5%)
same,"AE Hyperbilirubinemia: subjects, n (%)",[4]; 4.5 mg/kg IM,0
same,"AE Jaundice: subjects, n (%)",[4]; 4.5 mg/kg IM,0
same,"AE Leukocytosis: subjects, n (%)",[4]; 4.5 mg/kg IM,1 (12.5%)
same,"AE Meningitis: subjects, n (%)",[4]; 4.5 mg/kg IM,1 (12.5%)
same,"AE Oral Candidiasis: subjects, n (%)",[4]; 4.5 mg/kg IM,0
same,"AE Rash neonatal: subjects, n (%)",[4]; 4.5 mg/kg IM,0
same,"AE Rash papular: subjects, n (%)",[4]; 4.5 mg/kg IM,0
same,"AE Rash: subjects, n (%)",[4]; 4.5 mg/kg IM,0
same,"AE Seborrhoeic dermatitis: subjects, n (%)",[4]; 4.5 mg/kg IM,0
same,"AE Serum Glucose decreased: subjects, n (%)",[4]; 4.5 mg/kg IM,0
same,"AE Serum sodium increased: subjects, n (%)",[4]; 4.5 mg/kg IM,0
same,"AE Skin exfoliation: subjects, n (%)",[4]; 4.5 mg/kg IM,0
same,"AE Thrombocytopenia: subjects, n (%)",[4]; 4.5 mg/kg IM,1 (12.5%)
same,"AE Umbilical Hernia: subjects, n (%)",[4]; 4.5 mg/kg IM,0
same,"AE Vomiting: subjects, n (%)",[4]; 4.5 mg/kg IM,0
same,Total AEs,"[4]; 4.5 mg/kg IM, N = 8",8
same,serious adverse event Meningitis: Outcome,"[4]; 4.5 mg/kg, negative cultures",Resolved
same,subjects who experienced at least 1 TEAE,[4]; each treatment group,Greater than 30%
same,"incidence of TEAEs, 3 stannsoporfin treatment groups versus placebo",[4]; final data,no statistically significant differences

# Source: patent US20130158362A1 (INFACARE PHARMACEUTICAL CORPORATION, priority 2011, published 2013)
